Data published in publication PMC7316778 (Nature Communications, 2020).
Where “and” joins values, the source holds several entries; their conditions need not be identical. Equal entries are not always repeated. Where two headings read alike, the source gives them in different places.

Tests used:
[1] = target: T1, endogenous FES^S700C in HL-60 cells (Homo sapiens, UniProt P07332, S700C); test: Gel-based target engagement during PMA-induced macrophage differentiation; format: cell-based; conditions: for Relative FES labeling (%): Figure 6b
T1 construct: endogenous in cells; host or cells: HL-60 FES^S700C clone, differentiated to macrophages or neutrophils
Method: Cells were pretreated with vehicle or WEL028 (100 or 1000 nM, 1 h) prior to induction of differentiation towards monocytes/macrophages with PMA (16 nM, 48 h). Medium was refreshed with growth medium containing WEL028 and PMA after 24 h to maintain full FES inhibition. […] Threshold for CD11b-positive cells was determined using isotype control antibody. […] Kinases with native cysteine at DFG-1 position are shown in bold. All data represent means ± SEM.

CDK18/cyclin Y = CDK18/cyclin Y (Homo sapiens, UniProt Q07002); test: SelectScreen kinase assay; conditions: for Inhibition at 1 µM (%): CDK18/cyclin Y, ZLYTE, ATP Km app
Method: (§1) Selectivity profiling assays were performed by the Invitrogen SelectScreen™ Services. […] The concentration of ATP was selected to be equal to the KM, unless indicated otherwise.

FYN = FYN (Homo sapiens, UniProt P06241); test: SelectScreen kinase assay
Chain of FYN (P06241 whole entry): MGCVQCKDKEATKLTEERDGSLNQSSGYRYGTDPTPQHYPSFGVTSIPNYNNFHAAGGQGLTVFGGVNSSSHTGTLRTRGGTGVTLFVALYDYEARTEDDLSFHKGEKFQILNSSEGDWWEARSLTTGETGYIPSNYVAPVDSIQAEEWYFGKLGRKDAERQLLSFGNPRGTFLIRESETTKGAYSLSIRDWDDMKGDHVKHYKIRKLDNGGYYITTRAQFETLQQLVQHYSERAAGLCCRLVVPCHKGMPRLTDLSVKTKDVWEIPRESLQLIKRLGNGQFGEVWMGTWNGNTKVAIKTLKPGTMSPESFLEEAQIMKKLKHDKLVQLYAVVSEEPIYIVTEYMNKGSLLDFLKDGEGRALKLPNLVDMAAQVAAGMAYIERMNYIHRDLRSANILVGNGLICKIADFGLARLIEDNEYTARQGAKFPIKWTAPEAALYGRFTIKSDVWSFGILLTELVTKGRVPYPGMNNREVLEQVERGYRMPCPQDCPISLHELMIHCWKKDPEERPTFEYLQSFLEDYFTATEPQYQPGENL
Method: as §1

FYN A = FYN A (Homo sapiens, UniProt P06241); test: SelectScreen kinase assay
Chain of FYN A (P06241 whole entry): as above
Method: as §1

LCK = LCK (Homo sapiens, UniProt P06239); test: SelectScreen kinase assay
Chain of LCK (P06239 whole entry): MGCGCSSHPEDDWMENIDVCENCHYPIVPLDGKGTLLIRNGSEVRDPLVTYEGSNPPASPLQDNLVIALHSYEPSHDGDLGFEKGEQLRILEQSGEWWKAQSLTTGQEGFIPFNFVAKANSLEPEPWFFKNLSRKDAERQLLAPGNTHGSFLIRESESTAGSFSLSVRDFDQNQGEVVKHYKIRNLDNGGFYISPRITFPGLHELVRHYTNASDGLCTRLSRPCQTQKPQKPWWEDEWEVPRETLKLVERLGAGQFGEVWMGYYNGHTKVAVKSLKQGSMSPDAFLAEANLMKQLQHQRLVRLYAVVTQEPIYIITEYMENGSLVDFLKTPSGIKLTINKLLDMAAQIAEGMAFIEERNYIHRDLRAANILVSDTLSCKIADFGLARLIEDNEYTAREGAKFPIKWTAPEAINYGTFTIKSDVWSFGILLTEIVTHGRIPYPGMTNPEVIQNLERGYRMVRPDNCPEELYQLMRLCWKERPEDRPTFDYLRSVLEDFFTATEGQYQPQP
Method: as §1

MAPK11 (p38 beta) = MAPK11 (p38 beta) (Homo sapiens, UniProt Q15759); test: SelectScreen kinase assay
Chain of MAPK11 (p38 beta) (Q15759 whole entry): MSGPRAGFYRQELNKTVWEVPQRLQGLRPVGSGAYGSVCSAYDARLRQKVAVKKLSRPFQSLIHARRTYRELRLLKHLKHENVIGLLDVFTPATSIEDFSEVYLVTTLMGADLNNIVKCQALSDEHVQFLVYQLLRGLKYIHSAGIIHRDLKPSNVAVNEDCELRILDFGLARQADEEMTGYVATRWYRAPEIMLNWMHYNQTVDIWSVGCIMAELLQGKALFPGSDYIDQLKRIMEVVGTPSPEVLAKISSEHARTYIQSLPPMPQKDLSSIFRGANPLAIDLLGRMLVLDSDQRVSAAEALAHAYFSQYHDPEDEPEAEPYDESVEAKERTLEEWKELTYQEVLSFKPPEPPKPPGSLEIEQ
Method: as §1

NEK1 = NEK1 (Homo sapiens, UniProt Q96PY6); test: SelectScreen kinase assay
Method: as §1

NEK9 = NEK9 (Homo sapiens, UniProt Q8TD19); test: SelectScreen kinase assay
Chain of NEK9 (Q8TD19 whole entry): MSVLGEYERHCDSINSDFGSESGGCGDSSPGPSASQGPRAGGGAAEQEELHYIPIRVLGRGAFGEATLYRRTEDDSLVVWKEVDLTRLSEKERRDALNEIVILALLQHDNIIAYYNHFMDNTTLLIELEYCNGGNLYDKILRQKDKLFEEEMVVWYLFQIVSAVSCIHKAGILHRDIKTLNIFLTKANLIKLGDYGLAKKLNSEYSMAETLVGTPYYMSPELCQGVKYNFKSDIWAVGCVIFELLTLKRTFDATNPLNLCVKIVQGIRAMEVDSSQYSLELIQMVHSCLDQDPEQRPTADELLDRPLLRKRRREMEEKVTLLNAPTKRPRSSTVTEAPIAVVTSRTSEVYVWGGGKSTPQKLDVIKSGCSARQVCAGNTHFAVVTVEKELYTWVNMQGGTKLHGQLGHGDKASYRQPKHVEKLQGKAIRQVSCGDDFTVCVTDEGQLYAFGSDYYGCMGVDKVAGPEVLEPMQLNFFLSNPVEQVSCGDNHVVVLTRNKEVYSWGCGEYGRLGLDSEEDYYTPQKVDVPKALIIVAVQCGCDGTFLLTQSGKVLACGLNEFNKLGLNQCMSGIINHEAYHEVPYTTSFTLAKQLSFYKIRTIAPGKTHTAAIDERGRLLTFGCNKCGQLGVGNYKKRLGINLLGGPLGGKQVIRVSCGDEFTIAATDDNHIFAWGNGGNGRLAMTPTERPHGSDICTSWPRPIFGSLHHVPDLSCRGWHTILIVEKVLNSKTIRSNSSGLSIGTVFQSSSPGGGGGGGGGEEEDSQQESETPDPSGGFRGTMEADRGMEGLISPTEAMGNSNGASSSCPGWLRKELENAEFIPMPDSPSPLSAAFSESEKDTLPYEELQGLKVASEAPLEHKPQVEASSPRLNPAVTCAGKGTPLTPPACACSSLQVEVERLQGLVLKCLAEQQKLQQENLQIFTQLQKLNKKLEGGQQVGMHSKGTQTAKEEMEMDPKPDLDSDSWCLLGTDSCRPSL
Method: as §1

PAK7 (KIAA1264) = PAK7 (KIAA1264) (Homo sapiens, UniProt Q9P286); test: SelectScreen kinase assay
Method: as §1

PIK3C2B (PI3K-C2 beta) = PIK3C2B (PI3K-C2 beta) (Homo sapiens, UniProt O00750); test: SelectScreen kinase assay
Method: as §1

[2] = target: PIK3CA/PIK3R3 (p110 alpha/p55 gamma) (Homo sapiens, UniProt P42336); test: SelectScreen kinase assay; conditions: for Inhibition at 1 µM (%): PIK3CA/PIK3R3 (p110 alpha/p55 gamma), Adapta, ATP 10
Chain of PIK3CA/PIK3R3 (p110 alpha/p55 gamma) (P42336 whole entry): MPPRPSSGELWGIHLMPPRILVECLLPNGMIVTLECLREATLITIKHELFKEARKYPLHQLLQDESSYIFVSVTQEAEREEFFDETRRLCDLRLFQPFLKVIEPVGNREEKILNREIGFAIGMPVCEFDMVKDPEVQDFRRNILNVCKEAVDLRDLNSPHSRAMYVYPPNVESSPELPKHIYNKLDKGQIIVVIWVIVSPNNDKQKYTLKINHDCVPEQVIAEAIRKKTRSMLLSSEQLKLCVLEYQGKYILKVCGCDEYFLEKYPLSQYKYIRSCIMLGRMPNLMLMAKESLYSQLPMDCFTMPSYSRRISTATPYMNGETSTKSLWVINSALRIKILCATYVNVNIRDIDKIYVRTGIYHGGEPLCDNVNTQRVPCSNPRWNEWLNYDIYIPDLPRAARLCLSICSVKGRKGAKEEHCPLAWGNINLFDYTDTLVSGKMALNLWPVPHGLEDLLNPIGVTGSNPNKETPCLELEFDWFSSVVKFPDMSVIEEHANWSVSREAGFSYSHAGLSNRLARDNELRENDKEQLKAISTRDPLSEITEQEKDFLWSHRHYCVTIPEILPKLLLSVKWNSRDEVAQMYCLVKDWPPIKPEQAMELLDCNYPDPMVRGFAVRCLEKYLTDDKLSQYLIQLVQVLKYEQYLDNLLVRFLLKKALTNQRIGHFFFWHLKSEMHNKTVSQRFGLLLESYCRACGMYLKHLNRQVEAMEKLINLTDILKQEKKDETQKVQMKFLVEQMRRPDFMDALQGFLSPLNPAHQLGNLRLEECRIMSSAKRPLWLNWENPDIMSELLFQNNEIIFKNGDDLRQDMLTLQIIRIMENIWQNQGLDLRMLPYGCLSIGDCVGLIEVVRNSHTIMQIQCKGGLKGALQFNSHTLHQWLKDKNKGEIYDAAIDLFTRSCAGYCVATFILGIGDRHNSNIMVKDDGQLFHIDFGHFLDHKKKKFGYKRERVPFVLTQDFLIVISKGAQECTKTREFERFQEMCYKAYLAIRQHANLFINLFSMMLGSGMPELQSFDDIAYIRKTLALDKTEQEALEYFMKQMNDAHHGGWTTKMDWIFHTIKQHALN
Method: as §1

STK17B (DRAK2) = target: T2, STK17B (DRAK2) (Homo sapiens, UniProt O94768); test: SelectScreen kinase assay
T2 sequence (O94768 1-372): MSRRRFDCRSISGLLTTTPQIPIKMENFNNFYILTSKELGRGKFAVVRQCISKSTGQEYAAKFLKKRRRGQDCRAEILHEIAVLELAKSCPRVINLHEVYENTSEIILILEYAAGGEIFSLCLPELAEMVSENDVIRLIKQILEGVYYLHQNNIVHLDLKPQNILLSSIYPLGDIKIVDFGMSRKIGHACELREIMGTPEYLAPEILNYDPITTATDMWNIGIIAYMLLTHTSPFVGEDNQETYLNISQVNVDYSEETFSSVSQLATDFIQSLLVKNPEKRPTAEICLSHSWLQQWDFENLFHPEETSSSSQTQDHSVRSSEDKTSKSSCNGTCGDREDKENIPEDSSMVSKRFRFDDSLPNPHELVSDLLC
Method: as §1

TEC = target: T3, TEC (Homo sapiens, UniProt P42680); test: SelectScreen kinase assay; conditions: for Inhibition at 1 µM (%): LanthaScreen Binding
T3 sequence (P42680 1-631): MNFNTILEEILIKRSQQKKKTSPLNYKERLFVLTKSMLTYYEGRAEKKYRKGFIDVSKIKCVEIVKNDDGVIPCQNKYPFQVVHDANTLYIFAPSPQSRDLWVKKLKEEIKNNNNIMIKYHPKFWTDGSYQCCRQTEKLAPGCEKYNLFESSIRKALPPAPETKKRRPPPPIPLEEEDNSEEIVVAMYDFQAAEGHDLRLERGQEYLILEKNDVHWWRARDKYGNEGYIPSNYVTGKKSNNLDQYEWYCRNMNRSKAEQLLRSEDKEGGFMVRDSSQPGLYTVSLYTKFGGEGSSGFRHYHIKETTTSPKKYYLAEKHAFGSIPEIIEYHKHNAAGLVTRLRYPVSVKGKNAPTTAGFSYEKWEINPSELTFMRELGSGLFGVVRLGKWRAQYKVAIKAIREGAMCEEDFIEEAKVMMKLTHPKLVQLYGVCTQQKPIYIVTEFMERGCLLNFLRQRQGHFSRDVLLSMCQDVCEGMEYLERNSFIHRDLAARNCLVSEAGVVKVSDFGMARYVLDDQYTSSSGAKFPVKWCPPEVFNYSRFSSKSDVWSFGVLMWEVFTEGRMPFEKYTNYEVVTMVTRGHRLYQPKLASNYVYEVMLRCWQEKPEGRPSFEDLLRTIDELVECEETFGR
Method: as §1

VRK2 = VRK2 (Homo sapiens, UniProt Q86Y07); test: SelectScreen kinase assay
Chain of VRK2 (Q86Y07 whole entry): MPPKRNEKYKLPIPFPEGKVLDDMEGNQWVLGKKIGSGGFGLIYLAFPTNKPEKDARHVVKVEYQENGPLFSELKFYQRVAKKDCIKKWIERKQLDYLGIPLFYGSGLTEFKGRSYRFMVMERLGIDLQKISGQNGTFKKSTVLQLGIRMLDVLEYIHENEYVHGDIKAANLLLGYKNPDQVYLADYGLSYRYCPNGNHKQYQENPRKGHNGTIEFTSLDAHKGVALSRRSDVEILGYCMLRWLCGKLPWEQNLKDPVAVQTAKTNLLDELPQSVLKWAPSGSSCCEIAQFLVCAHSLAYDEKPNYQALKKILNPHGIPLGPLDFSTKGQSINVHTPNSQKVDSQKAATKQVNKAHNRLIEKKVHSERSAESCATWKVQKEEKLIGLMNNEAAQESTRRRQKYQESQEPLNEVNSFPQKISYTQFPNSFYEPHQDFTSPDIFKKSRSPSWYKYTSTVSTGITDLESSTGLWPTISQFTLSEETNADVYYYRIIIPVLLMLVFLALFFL
Method: as §1

WNK3 = WNK3 (Homo sapiens, UniProt Q9BYP7); test: SelectScreen kinase assay
Method: as §1

[3] = 1 h, 1 μM WEL028, 1 h preincubation
[4] = 1 µM, LanthaScreen Binding, listed as WEL028, 1 µM
[5] = read-out: Inhibition at 1 µM (%), 1 µM, LanthaScreen Binding

## C#CCOc1ccc(Nc2ncc(Cl)c(Nc3ccccc3NC(=O)C=C)n2)c(OC)c1 [Compound 6]
[1]; 100 nM WEL028 during PMA-induced differentiation
  Target engagement of engineered FES: full target engagement
[1]; WEL028 100 nM
  Relative FES labeling (%): 6.297% and 1.811% and 0.4549%
[1]; WEL028 1 µM
  Relative FES labeling (%): -1.423% and -3.177% and -0.4317%
CDK18/cyclin Y; [3]
  inhibition at 1 µM: 1%
CDK18/cyclin Y
  Inhibition at 1 µM (%): 3%
CDK18/cyclin Y; listed as WEL028, 1 µM
  Inhibition at 1 µM (%): -1%
FYN; [3]
  inhibition at 1 µM: 4%
FYN; FYN, 1 µM, ZLYTE, ATP Km app, listed as WEL028, 1 µM
  Inhibition at 1 µM (%): 0% and 8%
FYN A; [3]
  inhibition at 1 µM: 3%
FYN A; FYN A, 1 µM, LanthaScreen Binding, listed as WEL028, 1 µM
  Inhibition at 1 µM (%): -1% and 7%
LCK; [3]
  inhibition at 1 µM: 5%
LCK; LCK, 1 µM, ZLYTE, ATP Km app, listed as WEL028, 1 µM
  Inhibition at 1 µM (%): 6%
LCK; read-out: Inhibition at 1 µM (%), LCK, 1 µM, ZLYTE, ATP Km app
  inhibition at 1 µM: 4%
MAPK11 (p38 beta); [3]
  inhibition at 1 µM: 6%
MAPK11 (p38 beta); MAPK11 (p38 beta), 1 µM, ZLYTE, ATP Km app, listed as WEL028, 1 µM
  Inhibition at 1 µM (%): 7%
MAPK11 (p38 beta); read-out: Inhibition at 1 µM (%), MAPK11 (p38 beta), 1 µM, ZLYTE, ATP Km app
  inhibition at 1 µM: 6%
NEK1; [3]
  inhibition at 1 µM: 6%
NEK1; NEK1, 1 µM, ZLYTE, ATP Km app
  Inhibition at 1 µM (%): 12%
NEK9; [3]
  inhibition at 1 µM: -8%
NEK9; NEK9, 1 µM, ZLYTE, ATP Km app, listed as WEL028, 1 µM
  Inhibition at 1 µM (%): -7% and -9%
PAK7 (KIAA1264); [3]
  inhibition at 1 µM: 12%
PAK7 (KIAA1264); PAK7 (KIAA1264), 1 µM, ZLYTE, ATP Km app, listed as WEL028, 1 µM
  Inhibition at 1 µM (%): 15%
PAK7 (KIAA1264); read-out: Inhibition at 1 µM (%), PAK7 (KIAA1264), 1 µM, ZLYTE, ATP Km app
  inhibition at 1 µM: 10%
PIK3C2B (PI3K-C2 beta); 1 h
  inhibition at 1 µM: -1%
PIK3C2B (PI3K-C2 beta); read-out: Inhibition at 1 µM (%)
  inhibition at 1 µM: -1%
[2]; [3]
  inhibition at 1 µM: 1%
[2]
  Inhibition at 1 µM (%): 2%
[2]; listed as WEL028, 1 µM
  Inhibition at 1 µM (%): -1%
STK17B (DRAK2); [4]
  Inhibition at 1 µM (%): 8%
STK17B (DRAK2); [3]
  inhibition at 1 µM: 9%
STK17B (DRAK2); [5]
  inhibition at 1 µM: 9%
TEC
  Inhibition at 1 µM (%): 2%
TEC; listed as WEL028, 1 µM
  Inhibition at 1 µM (%): 7%
TEC; [3]
  inhibition at 1 µM: 5%
VRK2; [4]
  Inhibition at 1 µM (%): 19%
VRK2; [3]
  inhibition at 1 µM: 16%
VRK2; [5]
  inhibition at 1 µM: 14%
WNK3; [4]
  Inhibition at 1 µM (%): 5% and 1%
WNK3; [3]
  inhibition at 1 µM: 3%
